Results reported in patent US20250032485A1, “APPLICATION OF IMIDAZO [1,2-A] PYRAZINE COMPOUNDS OR THEIR PHARMACEUTICALLY ACCEPTABLE SALTS IN THE PREPARATION OF ANTI-CORONAVIRUS DRUGS” (GUANGZHOU MEDICAL UNIVERSITY, priority 2023, published 2025).

What follows are molecules tested against PLpro of SARS-CoV-2 (Severe acute respiratory syndrome coronavirus 2, UniProt P0DTD1) (assay: Enzyme activity test in vitro: inhibition of PLpro at fixed concentration 50 μM (RLRGG-AMC substrate)). Conditions: read-out: Inhibition rate at 50 μM (%).
Type: biochemical

Compound	inhibition at 50 µM [%]
CSc1ccc(-c2nc3cnccn3c2Nc2cccc(C(=O)N3CCCCC3)c2)cc1 [P22478, [3-[[2-(4-methyl-sulfanylphenyl)imidazo [1,2-a]pyrazin-3-yl]amino]phenyl]-piperidin-1-ylmethanone]	43.9
COc1ccc(-c2nc3cnccn3c2Nc2ccc(Cl)cc2)cc1OC [P19503, N-(4-chlorophenyl)-2-(3,4-dimethoxy-phenyl)imidazo[1,2-a]pyrazin-3-amine]	43.6
CSc1ccc(-c2nc3cnccn3c2Nc2cccc(C(N)=O)c2)cc1 [P19502, 3-[[2-(4-methyl-sulfanylphenyl)imidazo [1,2-a]pyrazin-3-yl]amino]benzamide]	39.1
CNC(=O)c1ccc(Nc2c(-c3ccc(OC)cc3)nc3cnccn23)cc1 [P19472, 4-[[2-(4-methoxy-phenyl)imidazo[1,2-a]pyrazin-3-yl]amino]-N-methylbenzamide]	28.1
COC(=O)c1ccc(-c2nc3cnccn3c2Nc2ccc(OC)c(OC)c2)cc1 [P22491, methyl 4-[3-(3,4-dimethoxy-anilino)imidazo[1,2-a]pyrazin-2-yl] benzoate]	22.4
COC(=O)c1ccc(-c2nc3cnccn3c2Nc2cccc(C(=O)OC)c2)cc1 [P19494, methyl 3-[[2-(4-methoxy-carbonylphenyl)imidazo [1,2-a]pyrazin-3-yl]amino]benzoate]	25.4
COc1cc(-c2nc3cnccn3c2Nc2cccc(C(=O)O)c2)ccc1O [P19506, 3-[[2-(4-hydroxy-3-methoxyphenyl)imidazo [1,2-a]pyrazin-3-yl]amino]benzoic acid]	34
O=C(O)c1cccc(Nc2c(-c3ccc(Cl)cc3)nc3cnccn23)c1 [P19516, 3-[[2-(4-chlorophenyl)imidazo[1,2-a]pyrazin-3-yl]amino] benzoic acid]	32.8
O=C(O)c1cccc(Nc2c(-c3ccc([N+](=O)[O-])cc3)nc3cnccn23)c1 [P37328, 3-[[2-(4-nitrophenyl)imidazo[1,2-a]pyrazin-3-yl]amino] benzoic acid]	17.2
CN(C)c1ccc(-c2nc3cnccn3c2Nc2ccc(C(=O)O)cc2)cc1 [P19475, 4-[[2-[4-(dimethyl-amino)phenyl]imidazo [1,2-a]pyrazin-3-yl]amino]benzoic acid]	35.1
CCOC(=O)c1ccc(Nc2c(-c3ccc(SC)cc3)nc3cnccn23)cc1 [P22541, ethyl 4-[[2-(4-methyl-sulfanylphenyl)imidazo [1,2-a]pyrazin-3-yl]amino]benzoate]	33.8
CNC(=O)c1ccc(Nc2c(-c3ccc(OC)c(OC)c3)nc3cnccn23)cc1 [P19464, 4-[[2-(3,4-dimethoxy-phenyl)imidazo[1,2-a]pyrazin-3-yl]amino]-N-methyl-benzamide]	42.2
CSc1ccc(-c2nc3cnccn3c2Nc2cccc(C(=O)NC3CCCCC3)c2)cc1 [P22448, N-cyclohexyl-3-[[2-(4-methylsulfanyl-phenyl)imidazo[1,2-a]pyrazin-3-yl]amino] benzamide]	26.9
COc1ccc(-c2nc3cnccn3c2Nc2ccc(C(=O)N3CCOCC3)cc2)cc1OC [P22470, [4-[[2-(3,4-dimethoxy-phenyl)imidazo[1,2-a]pyrazin-3-yl]amino]phenyl]-morpholin-4-ylmethanone]	32.1
CCOC(=O)c1ccc(Nc2c(-c3ccc(O)c(OC)c3)nc3cnccn23)cc1 [P22551, ethyl 4-[[2-(4-hydroxy-3-methoxyphenyl)imidazo[1,2-a]pyrazin-3-yl]amino]benzoate]	21
CC(C)NC(=O)c1ccc(Nc2c(-c3ccc(Cl)cc3)nc3cnccn23)cc1 [P22442, 4-[[2-(4-chlorophenyl)imidazo[1,2-a]pyrazin-3-yl]amino]-N-propan-2-ylbenzamide]	37.1
CCNC(=O)c1ccc(Nc2c(-c3ccccc3)nc3cnccn23)cc1 [P22461, N-ethyl-4-[(2-phenyl-imidazo[1,2-a]pyrazin-3-yl)amino] benzamide]	32.3
CCOC(=O)c1ccc(Nc2c(-c3ccc(N(C)C)cc3)nc3cnccn23)cc1 [P22502, ethyl 4-[[2-[4-(dimethyl-amino)phenyl]imidazo [1,2-a]pyrazin-3-yl]amino]benzoate]	14.4
Cc1cccc(C)c1Nc1c(-c2ccccc2)nc2cnccn12 [P32333, N-(2,6-dimethylphenyl)-2-phenylimidazo [1,2-a]pyrazin-3-amine]	35.8
CCc1cccc(C)c1Nc1c(-c2ccc(N)cc2)nc2cnccn12 [P37348, 2-(4-aminophenyl)-N-(2-ethyl-6-methyl-phenyl)imidazo[1,2-a]pyrazin-3-amine]	16
O=C(NCCN1CCOCC1)c1ccc(Nc2c(-c3ccccc3)nc3cnccn23)cc1 [P22472, N-(2-morpholin-4-ylethyl)-4-[(2-phenyl-imidazo[1,2-a]pyrazin-3-yl)amino] benzamide]	33
O=C(O)c1cccc(Nc2c(-c3ccccc3)nc3cnccn23)c1 [P19497, 3-[(2-phenylimidazo [1,2-a]pyrazin-3-yl)amino]benzoic acid]	31.2

Compound	inhibition at 50 µM [%]
CNC(=O)c1ccc(Nc2c(-c3ccc(C)cc3)nc3cnccn23)cc1 [P19482, N-methyl-4-[[2-(4-methylphenyl)imidazo [1,2-a]pyrazin-3-yl]amino]benzamide]	34.1
O=C(c1cccc(Nc2c(-c3ccc(Cl)cc3)nc3cnccn23)c1)N1CCCCC1 [P22468, [3-[[2-(4-chlorophenyl)imidazo[1,2-a]pyrazin-3-yl]amino]phenyl]-piperidin-1-ylmethanone]	29
CCOC(=O)c1ccc(Nc2c(-c3cccc(Cl)c3)nc3cnccn23)cc1 [P22522, ethyl 4-[[2-(3-chlorophenyl)imidazo[1,2-a]pyrazin-3-yl]amino] benzoate]	32.3
O=C(c1ccc(Nc2c(-c3ccccc3)nc3cnccn23)cc1)N1CCCCC1 [P22444, [4-[(2-phenylimidazo [1,2-a]pyrazin-3-yl)amino]phenyl]-piperidin-1-ylmethanone]	43.9
COC(=O)c1ccc(-c2nc3cnccn3c2NC2CCCCC2)cc1 [P24359, methyl 4-[3-(cyclohexylamino)imidazo[1,2-a]pyrazin-2-yl]benzoate]	37.1
CCNC(=O)c1ccc(-c2nc3cnccn3c2Nc2c(C)cccc2CC)cc1 [P22511, N-ethyl-4-[3-(2-ethyl-6-methylanilino)imidazo[1,2-a]pyrazin-2-yl]benzamide]	27.7
O=C(O)c1ccc(Nc2c(-c3cc(Br)ccc3O)nc3cnccn23)cc1 [P22503, 4-[[2-(5-bromo-2-hydroxyphenyl)imidazo [1,2-a]pyrazin-3-yl]amino]benzoic acid]	27.6
CSc1ccc(-c2nc3cnccn3c2Nc2ccc(C(=O)NC(C)C)cc2)cc1 [P22462, 4-[[2-(4-methyl-sulfanylphenyl)imidazo [1,2-a]pyrazin-3-yl]amino]-N-propan-2-ylbenzamide]	40.7
O=C(NCCN1CCOCC1)c1ccc(Nc2c(-c3ccc(Cl)cc3)nc3cnccn23)cc1 [P22413, 4-[[2-(4-chlorophenyl)imidazo[1,2-a]pyrazin-3-yl]amino]-N-(2-morpholin-4-ylethyl)benzamide]	36.1
CC(C)NC(=O)c1cccc(Nc2c(-c3ccccc3)nc3cnccn23)c1 [P22476, 3-[(2-phenylimidazo [1,2-a]pyrazin-3-yl)amino]-N-propan-2-ylbenzamide]	29
CCNC(=O)c1ccc(Nc2c(-c3ccc(Cl)cc3)nc3cnccn23)cc1 [P22402, 4-[[2-(4-chlorophenyl)imidazo[1,2-a]pyrazin-3-yl]amino]-N-ethylbenzamide]	31.3
O=C(O)c1cccc(Nc2c(-c3cc(Br)ccc3O)nc3cnccn23)c1 [P19487, 3-[[2-(5-bromo-2-hydroxyphenyl)imidazo [1,2-a]pyrazin-3-yl]amino]benzoic acid]	27.3
CCNC(=O)c1cccc(Nc2c(-c3ccccc3)nc3cnccn23)c1 [P22446, N-ethyl-3-[(2-phenyl-imidazo[1,2-a]pyrazin-3-yl)amino] benzamide]	44.4
O=C(c1cccc(Nc2c(-c3ccc(Cl)cc3)nc3cnccn23)c1)N1CCOCC1 [P22429, [3-[[2-(4-chlorophenyl)imidazo[1,2-a]pyrazin-3-yl]amino]phenyl]-morpholin-4-ylmethanone]	24.7
COC(=O)c1cccc(Nc2c(-c3cc(Br)ccc3O)nc3cnccn23)c1 [P19466, methyl 3-[[2-(5-bromo-2-hydroxyphenyl)imidazo [1,2-a]pyrazin-3-yl]amino]benzoate]	31.9
CCOC(=O)c1ccc(Nc2c(-c3cccc(O)c3)nc3cnccn23)cc1 [P22552, ethyl 4-[[2-(3-hydroxy-phenyl)imidazo[1,2-a]pyrazin-3-yl]amino] benzoate]	19.9
CCOC(=O)c1ccc(Nc2c(-c3ccc(C(=O)OC)cc3)nc3cnccn23)cc1 [P22521, methyl 4-[3-(4-ethoxy-carbonylanilino)imidazo[1,2-a]pyrazin-2-yl]benzoate]	22
COc1ccc(-c2nc3cnccn3c2Nc2ccc3c(c2)OCO3)cc1OC [P19444, N-(1,3-benzodioxol-5-yl)-2-(3,4-dimethoxy-phenyl)imidazo [1,2-a]pyrazin-3-amine]	42.2
CNC(=O)c1cccc(Nc2c(-c3ccccc3)nc3cnccn23)c1 [P22416, N-methyl-3-[(2-phenylimidazo[1,2-a]pyrazin-3-yl)amino] benzamide]	30.2
O=C(NC1CCCCC1)c1cccc(Nc2c(-c3ccc(F)cc3)nc3cnccn23)c1 [P22481, N-cyclohexyl-3-[[2-(4-fluorophenyl)imidazo[1,2-a]pyrazin-3-yl]amino] benzamide]	11.8
Cc1ccc(-c2nc3cnccn3c2Nc2ccc(C(=O)N3CCCCC3)cc2)cc1 [P22464, [4-[[2-(4-methyl-phenyl)imidazo[1,2-a]pyrazin-3-yl]amino]phenyl]-piperidin-1-ylmethanone]	29.6
CCNC(=O)c1ccc(Nc2c(-c3ccc(OC)c(OC)c3)nc3cnccn23)cc1 [P22410, 4-[[2-(3,4-dimethoxy-phenyl)imidazo[1,2-a]pyrazin-3-yl]amino]-N-ethylbenzamide]	42.2
